Assay results: ChEMBL document CHEMBL1201862, “PubChem BioAssay data set” (2004)
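Grown in 96-well plates, cells were treated for 48 hours with each compound at five concentrations. Insufficient inhibition: endpoint recorded as highest concentration tested. At the GI50, growth is halved.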 The source made the active and inactive calls. No stated cut-off is given here; in the data, active = GI50 up to about 1.1 µM and inactive = higher.

Tests used:
Experiment in all cases: NCI anticancer screen, dose series, 48 h
[1] = system: RPMI-8226
[2] = system: EKVX
[3] = system: HCC 2998
[4] = system: A498
[5] = system: DU-145
[6] = system: HCT-15
[7] = system: SR
[8] = system: SK-OV-3
[9] = system: NCI-H522
[10] = system: SK-MEL-2
[11] = system: UACC-62
[12] = system: SNB-75
[13] = system: OVCAR-3
[14] = system: IGROV-1
[15] = system: OVCAR-5
[16] = system: CAKI-1
[17] = system: NCI-H226
[18] = system: SK-MEL-28
[19] = system: NCI-H460
[20] = system: M14

SMILES | GI50 [1] | GI50 [2] | GI50 [3] | GI50 [4] | GI50 [5] | GI50 [6] [µM] | GI50 [7] | GI50 [8] | GI50 [9] | GI50 [10] | GI50 [11] | GI50 [12] | GI50 [13] | GI50 [14] | GI50 [15] | GI50 [16] | GI50 [17] | GI50 [18] | GI50 [19] | GI50 [20]
COc1ccc2c(-c3ccc(OCCN(C)C)cc3)c(Oc3ccccc3)c(=O)oc2c1 | 4.25 µM (inactive) | 11.1 µM (inactive) | 3.5 µM (inactive) | 13.4 µM (inactive) | 12.2 µM (inactive) | 3.48 | 2.07 µM (inactive) | 6.27 µM (inactive) | 3.48 µM (inactive) | 5.33 µM (inactive) | 2.78 µM (inactive) | 6.95 µM (inactive) | 7.64 µM (inactive) | 5.42 µM (inactive) | 14.2 µM (inactive) | 8.67 µM (inactive) | 16.1 µM (inactive) | 2.31 µM (inactive) | 7.64 µM (inactive) | 1.64 µM (inactive)
Cc1cc(N(CC(C)Br)CC(C)Br)ccc1/N=N/c1ccccc1C(=O)O (configuration not stated) | 1.75 µM (inactive) | 9.12 µM (inactive) | 1.15 µM (inactive) | 1.67 µM (inactive) | 7.67 µM (inactive) | 8.81 | 2.62 µM (inactive) | 13.1 µM (inactive) | 3.03 µM (inactive) | 2.93 µM (inactive) | 1.52 µM (inactive) | 2.43 µM (inactive) | 16.9 µM (inactive) | 11 µM (inactive) | 2.74 µM (inactive) | 2.49 µM (inactive) | 4.52 µM (inactive) | 1.93 µM (inactive) | 0.454 µM (active) | 6.04 µM (inactive)
CCN1CCN(c2nc3ccccc3c3c2CCOc2ccccc2-3)CC1 | 19.8 µM (inactive) | > 100 µM (inactive) | 18.6 µM (inactive) | > 39.3 µM (inactive) | > 31.6 µM (inactive) | 16.6 | 2.85 µM (inactive) | > 47.8 µM (inactive) | 26.4 µM (inactive) | 27.4 µM (inactive) | 17.7 µM (inactive) | > 40.6 µM (inactive) | > 69 µM (inactive) | 22.2 µM (inactive) | > 45.1 µM (inactive) | 25.1 µM (inactive) | > 47.1 µM (inactive) | 16.6 µM (inactive) | 27.2 µM (inactive) | 18.5 µM (inactive)
CC(C)NC(NC(C)C)=C(S(=O)(=O)C(F)(F)C(F)(F)C(F)(F)C(F)(F)F)S(=O)(=O)C(F)(F)C(F)(F)C(F)(F)C(F)(F)F | > 100 µM (inactive) | > 100 µM (inactive) | > 100 µM (inactive) | > 100 µM (inactive) | > 100 µM (inactive) | > 100 | > 100 µM (inactive) | > 100 µM (inactive) | > 100 µM (inactive) | > 100 µM (inactive) | > 100 µM (inactive) | > 100 µM (inactive) | > 100 µM (inactive) | > 100 µM (inactive) | > 100 µM (inactive) | > 100 µM (inactive) | > 100 µM (inactive) | > 100 µM (inactive) | > 100 µM (inactive) | > 100 µM (inactive)
COc1ccc(C(=O)c2cc(OC)c(OC)c(OC)c2)cc1 | 0.169 µM (active) | 0.484 µM (active) | 0.321 µM (active) | 0.0713 µM (active) | 0.205 µM (active) | 0.0566 | 0.0581 µM (active) | 1.14 µM (inactive) | 0.0715 µM (active) | 0.342 µM (active) | 0.0501 µM (active) | 0.0726 µM (active) | 0.0769 µM (active) | 0.219 µM (active) | 5.98 µM (inactive) | 0.0738 µM (active) | 1.11 µM (active) | 0.733 µM (active) | 0.0735 µM (active) | 0.0753 µM (active)
O=c1oc2c([N+](=O)[O-])cc([N+](=O)[O-])cc2c2ccccc12 | > 100 µM (inactive) | > 100 µM (inactive) | > 100 µM (inactive) | > 100 µM (inactive) | > 100 µM (inactive) | > 100 | > 100 µM (inactive) |  | > 100 µM (inactive) | > 100 µM (inactive) | > 100 µM (inactive) | > 100 µM (inactive) | > 100 µM (inactive) | > 100 µM (inactive) | > 100 µM (inactive) | > 100 µM (inactive) | > 100 µM (inactive) | > 100 µM (inactive) | > 100 µM (inactive) | > 100 µM (inactive)
NC1CCC(N(CC(=O)O)CC(=O)O)C(N(CC(=O)O)CC(=O)O)C1 (configuration not stated) | > 100 µM (inactive) |  | > 100 µM (inactive) | > 100 µM (inactive) | > 100 µM (inactive) | > 100 | > 100 µM (inactive) | > 100 µM (inactive) | > 100 µM (inactive) | > 100 µM (inactive) | > 100 µM (inactive) | > 100 µM (inactive) | > 100 µM (inactive) | > 100 µM (inactive) | > 100 µM (inactive) | > 100 µM (inactive) | > 100 µM (inactive) | > 100 µM (inactive) | > 100 µM (inactive) | 
